Assay results: patent publication US20240344241A1, “PROTEINACEOUS MOLECULES AND USES THEREFOR” (THE UNIVERSITY OF QUEENSLAND, priority 2021, published 2024)
Bridge positions count the residues as written; N and C are the ends. Peptide text beside a SMILES is read from it.

Assays:
[1] = target: T1, Human β-FXIIa (Homo sapiens, UniProt P00748); test: FXIIa competitive inhibition assay, fluorescent substrate Boc-QGR-MCA; assay type: biochemical
T1 construct: Human β-FXIIa was obtained from Molecular Innovations, together with human FXa, human FXIa, human α-thrombin, and human plasma kallikrein; purchased Molecular Innovations; host or cells: purified from human plasma
Description: Cyclic [I7F]MCoFx1 (also referred to as cyclic MCoFx6) was synthesized using solid phase peptide synthesis ([[…]] [SEQ ID NO: 97]). For this inhibitor, Tyr33 was mutated back to serine as per the original mRNA display screen (FIG. 1). Cyclic MCoFx6 was screened using a competitive inhibition assay, with the substrate being changed from a colorimetric substrate (Ac-QRFR-pNA in the data of Tables 7 and 10) to a fluorescent substrate (Boc-QGR-MCA) to allow the assay to be run with a lower concentration of enzyme. The assay was performed as described for Examples 2 and 3, except that the FXIIa concentration was 0.5 nM and the substrate concentration was 50 μM (KM=187 μM).
The new variants were screened using competitive inhibition assays, with the substrate being changed from a colorimetric substrate (Ac-QRFR-pNA in the data of Tables 7 and 10) to a fluorescent substrate (Boc-QGR-MCA) to allow the assay to be run with a lower concentration of enzyme. Assays were performed as described for Examples 2 and 3, except that the FXIIa concentration was 0.5 nM and the substrate concentration was 50 μM (KM=187 μM). […] The effect of amino acid substitutions within loop 2 (Arg12, Arg13), loop 5 (Ala25, Arg27) or loop 6 (Asp34) on the activity of cyclic MCoFx7 against FXIIa was determined (refer to Table 14). […] Additionally, mutating Arg to Glu (reversing the side chain charge) only led to two-fold weaker activity. The adjacent residue Arg13 could also be mutated to Lys with no change in activity. Within loop 5, mutating Ala25 to Lys produced a slight gain in activity, whereas the Ala to Pro mutation led to a slight decrease in activity. Both mutations at Arg27 led to losses in activity in the order of two-fold (His) or 3.2-fold (Gly).
(§1) The activity of acyclic and cyclic MCoFx1-5 and analogues thereof was assessed in competitive inhibition assays, as previously described in Swedberg et al. (2016) J Med Chem, 59: 7287-7292. Human β-FXIIa was obtained from Molecular Innovations, together with human FXa, human FXIa, human α-thrombin, and human plasma kallikrein. Human cationic trypsin and human plasmin were obtained from Sigma-Aldrich, and recombinant human matriptase was sourced from R&D Systems. Recombinant human urokinase (uPA) and recombinant human tissue plasminogen activator (tPA) were expressed in Expi293 cells, as previously described in Li et al. (2019) Chembiochem, 20: 46-50. FXIIa inhibition assays were performed in clear, low-binding 96-well plates using 250 μL (final volume) of assay buffer (0.1 M Tris-HCl pH 8.0, 0.1 M NaCl, 10 mM CaCl2 and 0.005% Triton X-100). Inhibitors were serially diluted and incubated with 10 nM FXIIa at room temperature to reach equilibrium. After adding 100 μM Ac-QRFR-pNA substrate (KM=162 μM), enzymatic activity was measured by monitoring release of the pNA moiety using a TECAN infinite M1000 Pro plate reader (A=405 nm, reading interval, 10 s; assay time course, 7 min). Assays were conducted in three times in duplicate. Substrate kinetic constants (Michaelis-Menten) and inhibition constants (Morrison K) were determined by non-linear regression using Prism 7 (GraphPad). Selectivity assays with off-target proteases were performed in a similar way, except that different concentrations of enzyme and substrate were used, as indicated in Table 16. For assays using a fluorescent substrate (peptide-4-methylcoumaryl-7-amide, MCA), black low-binding 96-well plates were used and activity was measured using a TECAN infinite M1000 pro plate reader (λex 360 nm, λem 460 nm, reading interval, 30 s; assay time course, 5-30 min).

[2] = tested on: human whole blood, intrinsic pathway (INTEM); test: Rotational thromboelastometry INTEM in human whole blood; settings: 10 μM
Description: (§2) The anticoagulant activity of cyclic MCoFx7 was determined in human whole blood using two assays: activated clotting time (ACT) and rotational thromboelastometry (ROTEM). In ACT assays, the clotting time (y-axis) was increased in a dose-dependent manner from the control (124 s), reaching 223 s with 20 μM MCoFx7. […] Anticoagulant activity was verified by thromboelastometry (TEM) that was measured after activation of the intrinsic pathway (INTEM) (refer to FIG. 16). […] By comparison, a single concentration of cyclic [A25P]MCoFx7 (10 μM) produced a clotting time of 500 s, similar to cyclic MCoFx7 at 10 μM (469 s).
(§3) Activated clotting time (ACT) was measured in fresh whole blood using celite tubes with the Hemochron 401 coagulation analyzer (Soma Technology, Bloomfield, CT, USA). Whole blood clot formation was recorded by ROTEM® Thromboelastometry (Haemoview Diagnostics, Brisbane, Australia) using INTEM (contact factor-initiated coagulation) and HEPTEM (contact factor-initiated coagulation with heparinase) activating reagents according to the manufacturer's instructions.

[3] = tested on: human whole blood; test: Activated clotting time (ACT) in human whole blood; settings: 10 μM, human whole blood
Description: as §2, §3

[4] = target: T2, Human plasmin (Homo sapiens, UniProt P00747); test: Plasmin inhibition assay; assay type: biochemical
T2 construct: Human cationic trypsin and human plasmin were obtained from Sigma-Aldrich, and recombinant human matriptase was sourced from R&D Systems; purchased Sigma-Aldrich; host or cells: purified from human plasma
Description: as §1

[5] = tested on: clotting via the extrinsic pathway; test: Prothrombin time (PT) assay in human plasma; assay type: biochemical; settings: at 10 μM
Description: (§4) Citrated, platelet-poor plasma samples from healthy adults were collected, prepared, and stored using previously established collection protocols, such as in Zdenek et al. (2019) Toxicol in Vitro, 58: 97-109.
(§5) Standard coagulation assays were used to determine the effect of the inhibitors on the clotting time of human plasma. Activated partial thromboplastin time (aPTT) uses a Kaolin reagent (clay) to activate the intrinsic/contact pathway of the coagulation cascade, whereas prothrombin time (PT) uses Neoplastine (lyophilized thromboplastin prepared from rabbit cerebral tissue) to activate the extrinsic/tissue-factor pathway of the coagulation cascade. A minor adjustment was made to both tests (addition of 25 μL inhibitor or buffer; refer to Table 17) to accommodate the addition of an inhibitor without changing the total volume (and therefore relative ratios of additives) of the assay. Concentrations of inhibitor are reported as the concentration at the point of incubation in the assay, i.e. not taking into account the addition of the start reagent (calcium for aPTT, or Neoplastine for PT).
(§6) Clotting time (seconds) of plasma was automatically measured using a STA-R Max® analyzer (Stago, Asnieres sur Seine, France). Measurements were conducted using a viscosity-based (mechanical) detection system, whereby opposing magnets oscillate a small metal spherical pellet inside the test cuvette (250 μL total volume) until a clot is formed. Dilution of the inhibitor in Owren-Koller (OK) buffer for dose-response curves was performed automatically by the machine. Reagents were kept at 15-19° C. in the machine during experimentation and otherwise stored at 4° C. All tests were performed in triplicate.

[6] = target: T3, Rec. human tPA (Homo sapiens, UniProt P00750); test: tPA inhibition assay; assay type: biochemical
T3 construct: made in house; host or cells: Expi293 cells
Description: as §1

[7] = target: T4, Human FXIa (Homo sapiens, UniProt P03951); test: FXIa inhibition assay; assay type: biochemical
T4 construct: Human β-FXIIa was obtained from Molecular Innovations, together with human FXa, human FXIa, human α-thrombin, and human plasma kallikrein; purchased Molecular Innovations; host or cells: purified from human plasma
Description: as §1

[8] = Stability in human serum; settings: human serum, 37° C., up to 24 h
Description: Briefly, peptides were incubated at a final concentration of 30 μM in human serum (human male AB serum, Sigma-Aldrich) at 37° C. for 0, 1, 12 and 24 h. The reaction was stopped at designated times, with the serum proteins being denatured by addition of two volumes of acetonitrile (v/v). The samples were then spun at 17,000 g for 10 min and the amount of peptide in the supernatant was quantified using analytical HPLC. The percentage of peptide remaining at 1, 12 and 24 h was calculated using the area of the serum-treated peptide peak from 0 h as 100%.

[9] = target: T5, Rec. human uPA (Homo sapiens, UniProt P00749); test: uPA inhibition assay; assay type: biochemical
T5 construct: made in house; host or cells: Expi293 cells
Description: as §1

[10] = target: T6, Human thrombin (Homo sapiens, UniProt P00734); test: Thrombin inhibition assay; assay type: biochemical
T6 construct: Human β-FXIIa was obtained from Molecular Innovations, together with human FXa, human FXIa, human α-thrombin, and human plasma kallikrein; purchased Molecular Innovations; host or cells: purified from human plasma
Description: as §1

[11] = target: T7, Human trypsin (Homo sapiens, UniProt P07477); test: Trypsin competitive inhibition assay; assay type: biochemical
T7 construct: purchased Sigma-Aldrich; host or cells: purified from human tissue
Description: as §1

[12] = target: T1, Human β-FXIIa; test: FXIIa competitive inhibition assay, colorimetric substrate Ac-QRFR-pNA; assay type: biochemical
Procedure, shortened: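 Serially diluted inhibitors equilibrated at room temperature with 10 nM β-FXIIa in 0.1 M Tris-HCl pH 8.0, 0.1 M NaCl, 10 mM CaCl2, 0.005% Triton X-100; 100 μM Ac-QRFR-pNA (KM=162 μM), A405 over 7 min. Off-target proteases used differing enzyme/substrate levels, some with fluorogenic MCA substrates (ex 360/em 460 nm, 5-30 min). Morrison Ki by non-linear regression.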

[13] = target: T8, Rec. human matriptase (Homo sapiens, UniProt Q9Y5Y6); test: Matriptase inhibition assay; assay type: biochemical
T8 construct: purchased R&D Systems
T8 sequence (Q9Y5Y6 615-855 limits assumed): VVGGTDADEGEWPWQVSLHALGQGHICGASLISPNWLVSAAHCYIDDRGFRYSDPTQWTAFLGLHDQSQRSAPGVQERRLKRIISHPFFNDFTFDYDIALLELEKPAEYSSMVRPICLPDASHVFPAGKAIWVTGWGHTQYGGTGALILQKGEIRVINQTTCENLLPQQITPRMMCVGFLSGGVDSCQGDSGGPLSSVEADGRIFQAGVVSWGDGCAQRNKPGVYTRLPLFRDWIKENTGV
Description: as §1

[14] = target: T9, Human FXa (Homo sapiens, UniProt P00742); test: FXa inhibition assay; assay type: biochemical
T9 construct: Human β-FXIIa was obtained from Molecular Innovations, together with human FXa, human FXIa, human α-thrombin, and human plasma kallikrein; purchased Molecular Innovations; host or cells: purified from human plasma
Description: as §1

[15] = tested on: clotting via the intrinsic pathway; test: Activated partial thromboplastin time (aPTT) assay in human plasma; assay type: biochemical
Description: as §4, §5, §6

[16] = target: T10, Human plasma kallikrein (Homo sapiens, UniProt P03952); test: Plasma kallikrein inhibition assay; assay type: biochemical
T10 construct: Human β-FXIIa was obtained from Molecular Innovations, together with human FXa, human FXIa, human α-thrombin, and human plasma kallikrein; purchased Molecular Innovations; host or cells: purified from human plasma
Description: as §1

T4 sequence (P03951 388-625 limits assumed): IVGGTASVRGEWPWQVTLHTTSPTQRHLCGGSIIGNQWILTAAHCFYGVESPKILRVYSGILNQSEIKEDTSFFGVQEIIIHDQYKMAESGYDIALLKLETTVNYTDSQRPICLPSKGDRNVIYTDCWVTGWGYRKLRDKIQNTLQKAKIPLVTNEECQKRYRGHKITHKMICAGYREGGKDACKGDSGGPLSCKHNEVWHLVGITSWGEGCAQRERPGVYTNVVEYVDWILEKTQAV
T4 sequence (P03951 19-387 partner limits assumed): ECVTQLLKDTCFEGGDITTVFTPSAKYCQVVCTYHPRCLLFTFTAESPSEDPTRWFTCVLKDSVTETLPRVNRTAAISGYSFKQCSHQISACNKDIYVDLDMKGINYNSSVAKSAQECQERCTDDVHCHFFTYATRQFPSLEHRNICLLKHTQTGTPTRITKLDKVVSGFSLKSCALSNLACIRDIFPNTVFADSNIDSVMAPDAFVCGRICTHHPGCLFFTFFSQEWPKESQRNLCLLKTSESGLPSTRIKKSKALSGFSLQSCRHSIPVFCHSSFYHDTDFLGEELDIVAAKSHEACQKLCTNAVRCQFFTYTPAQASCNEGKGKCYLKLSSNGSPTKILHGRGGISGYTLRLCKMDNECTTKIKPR
T1 sequence (P00748 373-615 limits assumed, other chains not shown): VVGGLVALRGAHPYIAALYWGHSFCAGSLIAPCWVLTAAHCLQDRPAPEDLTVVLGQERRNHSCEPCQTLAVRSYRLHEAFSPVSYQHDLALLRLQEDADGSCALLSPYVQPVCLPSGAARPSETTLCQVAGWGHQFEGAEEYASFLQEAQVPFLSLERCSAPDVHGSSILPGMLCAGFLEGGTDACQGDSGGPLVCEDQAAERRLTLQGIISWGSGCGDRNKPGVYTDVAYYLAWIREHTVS
T9 sequence (P00742 235-488 limits assumed): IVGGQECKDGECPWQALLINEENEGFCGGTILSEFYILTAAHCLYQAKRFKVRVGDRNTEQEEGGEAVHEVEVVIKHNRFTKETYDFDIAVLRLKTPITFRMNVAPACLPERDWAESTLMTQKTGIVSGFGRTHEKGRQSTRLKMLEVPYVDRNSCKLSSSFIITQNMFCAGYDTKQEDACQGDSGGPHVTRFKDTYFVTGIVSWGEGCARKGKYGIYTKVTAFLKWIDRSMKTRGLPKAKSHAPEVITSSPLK
T9 sequence (P00742 41-179 partner limits assumed): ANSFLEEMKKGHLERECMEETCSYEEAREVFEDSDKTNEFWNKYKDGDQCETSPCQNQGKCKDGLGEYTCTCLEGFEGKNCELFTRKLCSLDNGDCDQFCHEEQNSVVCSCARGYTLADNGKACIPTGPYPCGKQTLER
T3 sequence (P00750 36-562): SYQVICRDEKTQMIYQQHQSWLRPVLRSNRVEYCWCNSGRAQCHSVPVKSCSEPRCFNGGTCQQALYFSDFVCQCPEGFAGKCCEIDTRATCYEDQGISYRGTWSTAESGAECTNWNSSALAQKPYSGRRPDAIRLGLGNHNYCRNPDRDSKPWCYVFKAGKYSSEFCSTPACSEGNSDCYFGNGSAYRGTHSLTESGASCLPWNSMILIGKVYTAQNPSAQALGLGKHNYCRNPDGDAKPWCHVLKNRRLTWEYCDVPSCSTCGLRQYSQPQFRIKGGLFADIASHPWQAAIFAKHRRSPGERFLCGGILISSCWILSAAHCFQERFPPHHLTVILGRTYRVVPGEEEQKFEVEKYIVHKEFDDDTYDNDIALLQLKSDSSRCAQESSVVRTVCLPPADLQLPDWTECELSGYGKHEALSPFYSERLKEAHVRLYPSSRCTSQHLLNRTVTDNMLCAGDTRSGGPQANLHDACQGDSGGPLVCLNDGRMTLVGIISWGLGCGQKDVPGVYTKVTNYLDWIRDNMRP
T10 sequence (P03952 391-638 limits assumed): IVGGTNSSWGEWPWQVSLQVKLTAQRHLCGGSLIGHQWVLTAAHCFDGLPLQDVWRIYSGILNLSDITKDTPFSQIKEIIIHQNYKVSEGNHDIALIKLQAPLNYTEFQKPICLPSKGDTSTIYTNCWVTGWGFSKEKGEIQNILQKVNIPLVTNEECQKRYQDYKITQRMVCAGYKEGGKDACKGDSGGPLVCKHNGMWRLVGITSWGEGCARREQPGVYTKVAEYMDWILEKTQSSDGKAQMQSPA
T10 sequence (P03952 20-390 partner limits assumed): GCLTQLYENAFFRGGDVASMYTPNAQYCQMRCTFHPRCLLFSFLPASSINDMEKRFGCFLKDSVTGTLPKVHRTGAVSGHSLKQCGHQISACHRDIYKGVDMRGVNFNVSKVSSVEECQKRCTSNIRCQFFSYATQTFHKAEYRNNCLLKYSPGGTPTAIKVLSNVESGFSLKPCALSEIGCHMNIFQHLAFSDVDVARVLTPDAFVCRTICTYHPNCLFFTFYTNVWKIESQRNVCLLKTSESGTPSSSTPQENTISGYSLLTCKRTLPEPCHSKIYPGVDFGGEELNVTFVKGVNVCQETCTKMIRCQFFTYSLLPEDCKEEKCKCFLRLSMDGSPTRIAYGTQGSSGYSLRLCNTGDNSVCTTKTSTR
T2 sequence (P00747 581-810 limits assumed): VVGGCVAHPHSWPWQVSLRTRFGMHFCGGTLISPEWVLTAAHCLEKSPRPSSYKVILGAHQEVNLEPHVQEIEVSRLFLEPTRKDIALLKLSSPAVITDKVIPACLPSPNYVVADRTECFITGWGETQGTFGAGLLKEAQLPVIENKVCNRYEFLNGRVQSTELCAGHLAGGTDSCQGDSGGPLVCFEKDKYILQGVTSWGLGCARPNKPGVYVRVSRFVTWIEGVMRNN
T2 sequence (P00747 97-580 partner limits assumed): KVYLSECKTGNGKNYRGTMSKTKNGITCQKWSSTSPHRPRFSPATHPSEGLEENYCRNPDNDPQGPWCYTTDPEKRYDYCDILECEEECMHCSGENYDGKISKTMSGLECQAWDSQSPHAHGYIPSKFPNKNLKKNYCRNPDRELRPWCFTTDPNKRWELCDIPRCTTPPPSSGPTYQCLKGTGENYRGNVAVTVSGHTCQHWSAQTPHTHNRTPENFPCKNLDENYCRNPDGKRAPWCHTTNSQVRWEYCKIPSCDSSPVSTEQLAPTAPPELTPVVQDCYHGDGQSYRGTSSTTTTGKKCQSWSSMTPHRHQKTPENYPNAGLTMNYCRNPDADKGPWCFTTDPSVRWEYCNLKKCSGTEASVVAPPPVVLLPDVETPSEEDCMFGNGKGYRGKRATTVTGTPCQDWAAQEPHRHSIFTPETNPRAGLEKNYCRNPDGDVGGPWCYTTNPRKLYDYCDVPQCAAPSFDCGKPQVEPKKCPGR

CC[C@H](C)[C@@H]1NC(=O)CNC(=O)CNC(=O)[C@H](CC(=O)O)NC(=O)[C@H](CO)NC(=O)CNC(=O)[C@H](CO)NC(=O)CNC(=O)[C@@H]2CSSC[C@@H]3NC(=O)[C@H](CC(=O)O)NC(=O)[C@H](CO)NC(=O)[C@H](CC(=O)O)NC(=O)[C@H](CCCNC(=N)N)NC(=O)[C@H](CCCNC(=N)N)NC(=O)[C@@H]4CSSC[C@H](NC(=O)[C@H]([C@@H](C)CC)NC(=O)[C@H](CSSC[C@H](NC1=O)C(=O)N1CCC[C@H]1C(=O)N[C@@H](CCCNC(=N)N)C(=O)N[C@@H]([C@@H](C)CC)C(=O)NCC(=O)N[C@@H](CCCNC(=N)N)C(=O)N[C@@H](CC(C)C)C(=O)N4)NC(=O)[C@H](C)NC(=O)CNC(=O)[C@@H]1CCCN1C3=O)C(=O)N[C@@H](CCCNC(=N)N)C(=O)N1CCC[C@H]1C(=O)N[C@@H]([C@@H](C)O)C(=O)N[C@@H](CCCNC(=N)N)C(=O)N[C@@H](Cc1ccccc1)C(=O)N2 [Cyclic [A25P]MCoFx7] (cyclo(ACICRPTRFCGSGSDGGICPRIGRLCRRDSDCPG); disulfide 2-19, 4-26, 10-32)
Ki [1]: 93 ± 5 pM | INTEM clotting time [2]: 500 s | ACT clotting time [3]: 186 s

CC[C@H](C)[C@@H]1NC(=O)CNC(=O)CNC(=O)[C@H](CC(=O)O)NC(=O)[C@H](CO)NC(=O)CNC(=O)[C@H](CO)NC(=O)CNC(=O)[C@@H]2CSSC[C@@H]3NC(=O)[C@H](CC(=O)O)NC(=O)[C@H](CO)NC(=O)[C@H](CC(=O)O)NC(=O)[C@H](CCCNC(=N)N)NC(=O)[C@H](CCCNC(=N)N)NC(=O)[C@@H]4CSSC[C@H](NC(=O)[C@H]([C@@H](C)CC)NC(=O)[C@H](CSSC[C@H](NC1=O)C(=O)N1CCC[C@H]1C(=O)N[C@@H](CCCNC(=N)N)C(=O)N[C@@H]([C@@H](C)CC)C(=O)NCC(=O)N[C@@H](CCCNC(=N)N)C(=O)N[C@@H](CC(C)C)C(=O)N4)NC(=O)[C@H](C)NC(=O)CNC(=O)[C@@H]1CCCN1C3=O)C(=O)N[C@@H](CCCNC(=N)N)C(=O)NCC(=O)N[C@@H](CC(N)=O)C(=O)NCC(=O)N[C@@H](Cc1ccc(O)cc1)C(=O)N2 [cMCoTI-fxL1] (cyclo(ACICRGNGYCGSGSDGGICPRIGRLCRRDSDCPG); disulfide 2-19, 4-26, 10-32)
IC50 [4]: > 5 µM | inhibition at 5 µM ([4]; read-out: percent inhibition Plasmin): 19% | clotting time compared to control, PT assay [5]: No significant differences in clotting time compared to control assays | IC50 [6]: > 5 µM | inhibition at 5 µM ([6]; read-out: percent inhibition tPA): 1% | IC50 [7]: > 5 µM | inhibition at 5 µM ([7]; read-out: percent inhibition FXIa): 1% | resistance to serum proteases (in words) [8]: highly resistant to serum proteases | IC50 [9]: > 5 µM | inhibition at 5 µM ([9]; read-out: percent inhibition uPA): 0% | IC50 [10]: > 5 µM | inhibition at 5 µM ([10]; read-out: percent inhibition Thrombin): 1% | Ki [11]: 0.996 µM | Ki [12]: 0.00069 µM | Ki [13]: 2.21 µM | IC50 [14]: > 5 µM | inhibition at 5 µM ([14]; read-out: percent inhibition FXa): 0% | EC2× (concentration required to double the clotting time) [15]: 500 nM | IC50 [16]: > 5 µM | inhibition at 5 µM ([16]; read-out: percent inhibition Plasma kallikrein): 0%
